pEC50: −log10 of the molar value. Like-named read-outs stand apart in the source and are kept apart here.
Target: CFTR (Homo sapiens, UniProt P13569)
Assay: Membrane Potential Dye, Enteroid Assay A
Format: cell-based
Conditions: for pEC50: read-out: Ent. A EC50
Method in brief: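 Signal is reported as % Activity relative to a triple CFTR modulator control (3 μM + 3 μM + 300 nM acute). Read-out: membrane potential fluorescence (20 μM methyl oxonol) monitored for 15 min after chloride-free stimulation. Dye loading took 25 min at room temperature in Bath 1 buffer containing CaCC blockers.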

Sequence of CFTR (P13569 with tags, fused parts or gaps DEL508-508): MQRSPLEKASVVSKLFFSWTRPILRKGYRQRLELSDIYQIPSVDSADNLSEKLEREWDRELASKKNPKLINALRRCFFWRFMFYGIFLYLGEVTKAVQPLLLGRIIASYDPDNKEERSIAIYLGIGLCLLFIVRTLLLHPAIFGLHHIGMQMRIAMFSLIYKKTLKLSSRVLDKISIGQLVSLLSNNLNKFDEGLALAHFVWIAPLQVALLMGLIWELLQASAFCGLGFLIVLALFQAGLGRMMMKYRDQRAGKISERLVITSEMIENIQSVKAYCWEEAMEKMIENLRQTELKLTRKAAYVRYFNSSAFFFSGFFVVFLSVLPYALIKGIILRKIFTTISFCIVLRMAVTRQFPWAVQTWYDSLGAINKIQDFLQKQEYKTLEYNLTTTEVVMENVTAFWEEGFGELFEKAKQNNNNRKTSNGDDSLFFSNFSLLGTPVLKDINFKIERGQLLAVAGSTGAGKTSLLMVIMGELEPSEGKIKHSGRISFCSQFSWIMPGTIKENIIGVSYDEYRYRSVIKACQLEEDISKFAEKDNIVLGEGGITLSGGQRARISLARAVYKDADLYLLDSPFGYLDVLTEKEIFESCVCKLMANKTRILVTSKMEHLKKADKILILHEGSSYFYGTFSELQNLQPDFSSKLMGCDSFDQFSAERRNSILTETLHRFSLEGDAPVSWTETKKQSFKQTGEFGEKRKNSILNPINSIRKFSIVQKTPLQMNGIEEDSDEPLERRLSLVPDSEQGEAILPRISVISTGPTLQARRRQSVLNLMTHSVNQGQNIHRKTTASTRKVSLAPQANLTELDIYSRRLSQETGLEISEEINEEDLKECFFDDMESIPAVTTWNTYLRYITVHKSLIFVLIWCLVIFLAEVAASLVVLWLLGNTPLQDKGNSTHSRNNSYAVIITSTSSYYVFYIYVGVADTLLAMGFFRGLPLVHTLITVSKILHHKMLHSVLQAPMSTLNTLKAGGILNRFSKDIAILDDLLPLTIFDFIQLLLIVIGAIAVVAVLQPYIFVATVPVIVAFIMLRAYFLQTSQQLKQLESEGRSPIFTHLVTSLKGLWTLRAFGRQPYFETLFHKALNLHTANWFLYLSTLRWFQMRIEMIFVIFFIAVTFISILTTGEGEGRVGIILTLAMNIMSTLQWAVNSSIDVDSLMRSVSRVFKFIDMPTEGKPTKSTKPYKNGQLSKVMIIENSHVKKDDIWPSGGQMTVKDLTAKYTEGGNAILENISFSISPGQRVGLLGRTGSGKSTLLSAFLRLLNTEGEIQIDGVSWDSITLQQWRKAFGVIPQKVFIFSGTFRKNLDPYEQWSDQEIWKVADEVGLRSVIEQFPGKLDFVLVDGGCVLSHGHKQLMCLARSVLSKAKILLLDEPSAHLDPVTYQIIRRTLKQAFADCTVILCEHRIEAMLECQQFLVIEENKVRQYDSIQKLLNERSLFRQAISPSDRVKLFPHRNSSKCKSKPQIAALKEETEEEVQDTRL

SMILES: Cc1cccc(C)c1-c1cc2nc(n1)NS(=O)(=O)c1cccc(c1)C(=O)NCC1(CCN(C(=O)[C@H]3[C@H](c4ccccc4)C3(C)C)CC1)CO2 [Compound 465]
- Ent. A Max Activity (Enteroid Assay A): ++ (++ is 30-60%)
- pEC50 (Enteroid Assay A): 5.52 to 6.00

SMILES: Cc1cccc(C)c1-c1cc2nc(n1)NS(=O)(=O)c1cccc(c1)C(=O)NC1(CCC(C(C)(C)C)CC1)CO2 (stereo not shown) [Compound 495]
- Ent. A Max Activity (Table 9): +++ (+++ is >60%)
- pEC50 (Table 9): > 6.00

SMILES: Cc1cccc(C)c1-c1cc2nc(n1)NS(=O)(=O)c1cccc(c1)C(=O)NCC(c1ccc([Si](C)(C)C)cc1)O2 (single isomer, unassigned) [Compound 16, 6-(2,6-Dimethylphenyl)-2,2-dioxo-10-(4-trimethylsilylphenyl)-9-oxa-2λ^6-thia-3,5,12,19-tetrazatricyclo[12.3.1.14,8]nonadeca-1(18),4(19),5,7,14,16-hexaen-13-one]
- pEC50 (Table 9): > 6.00

SMILES: Cc1cccc(C)c1-c1cc2nc(n1)NS(=O)(=O)c1cccc(c1)C(=O)NCC1(CCN(C(=O)CO[C@@H]3C[C@H](C)CC[C@H]3C(C)C)CC1)CO2 [Compound 468]
- Ent. A Max Activity (Enteroid Assay A): ++ (++ is 30-60%)
- pEC50 (Enteroid Assay A): 5.52 to 6.00

SMILES: Cc1cccc(C)c1-c1cc2nc(n1)NS(=O)(=O)c1cccc(c1)C(=O)NCC1(CCN(C(=O)C3CSCCN3C(=O)OC(C)(C)C)CC1)CO2 (stereo not shown) [Compound 471]
- Ent. A Max Activity (Enteroid Assay A): ++ (++ is 30-60%)

SMILES: Cc1cccc(C)c1-c1cc2nc(n1)NS(=O)(=O)c1cccc(c1)C(=O)NCC1(CCN(CCC(C)CC(C)(C)C)CC1)CO2 (stereo not shown) [Compound 441]
- Ent. A Max Activity (Enteroid Assay A): +++ (+++ is >600%)
- pEC50 (Enteroid Assay A): > 6.00

SMILES: Cc1cccc(C)c1-c1cc2nc(n1)NS(=O)(=O)c1cc(ccn1)C(=O)N[C@H](CC1CCCCC1)CO2 [Compound 69, (11R)-11-(Cyclohexylmethyl)-6-(2,6-dimethylphenyl)-2,2-dioxo-9-oxa-2λ^6-thia-3,5,12,17,19-pentazatricyclo[12.3.1.14,8]nonadeca-1(17),4(19),5,7,14(18),15-hexaen-13-one]
- Ent. A Max Activity (Table 8): +++ (+++ is >60%)
- pEC50 (Table 8): > 6.00

SMILES: Cc1cccc(C)c1-c1cc2nc(n1)NS(=O)(=O)c1cccc(c1)C(=O)NCC1(CCN(C(=O)c3cc4c(cc3O)CCCC4)CC1)CO2 [Compound 462]
- Ent. A Max Activity (Enteroid Assay A): ++ (++ is 30-60%)

SMILES: Cc1cccc(C)c1-c1cc2nc(n1)NS(=O)(=O)c1cccc(c1)C(=O)N[C@H](c1ccccc1)CO2 [Compound 352]
- Ent. A Max Activity (Enteroid Assay A): +++ (+++ is >600%)
- pEC50 (Enteroid Assay A): > 6.00

SMILES: Cc1cccc(C)c1-c1cc2nc(n1)NS(=O)(=O)c1cccc(c1)C(=O)NC1c3ccccc3CC1O2 (stereo not shown) [Compound 489]
- Ent. A Max Activity (Enteroid Assay A): +++ (+++ is >600%)
- pEC50 (Enteroid Assay A): > 6.00

SMILES: CC(C)C[C@@H]1COc2cc(-c3ccccc3OC(F)(F)F)nc(n2)NS(=O)(=O)c2cccc(c2)C(=O)N1 [Compound 103, (11R)-11-(2-Methylpropyl)-6-[2-(trifluoromethoxy)phenyl]-9-oxa-2λ^6-thia-3,5,12,19-tetraazatricyclo[12.3.1.14,8]nonadeca-1(17),4(19),5,7,14(18),15-hexaene-2,2,13-trione]
- Ent. A Max Activity (Enteroid Assay A): +++ (+++ is >600%)
- pEC50 (Enteroid Assay A): > 6.00

SMILES: CC(C)C[C@@H]1COc2cc(-c3c(C(C)C)cccc3C(C)C)nc(n2)NS(=O)(=O)c2cccc(c2)C(=O)N1 [Compound 99, (11R)-6-(2,6-diisopropylphenyl)-11-isobutyl-2,2-dioxo-9-oxa-2λ^6-thia-3,5,12,19-tetrazatricyclo[12.3.1.14,8]nonadeca-1(18),4,6,8(19),14,16-hexaen-13-one]
- Ent. A Max Activity (Table 8): +++ (+++ is >60%)
- pEC50 (Table 8): > 6.00

SMILES: Cc1cccc(C)c1-c1cc2nc(n1)NS(=O)(=O)c1cccc(c1)C(=O)NC(C)(CC(C)C)CO2 (stereo not shown) [Compound 176]
- Ent. A Max Activity (Table 9): +++ (+++ is >60%)
- pEC50 (Table 9): > 6.00

SMILES: Cc1cccc(C)c1-c1cc2nc(n1)NS(=O)(=O)[C@H]1CC[C@H]1C(=O)N[C@H](CC(C)C)CO2 (single isomer, unassigned) [Compound 72]
- Ent. A Max Activity (Table 9): + (+ is <30%)

SMILES: COc1ccccc1-c1cc2nc(n1)NS(=O)(=O)c1cccc(c1)C(=O)N[C@H](CC(C)C)CO2 [Compound 330]
- Ent. A Max Activity (Enteroid Assay A): ++ (++ is 30-60%)

SMILES: Cc1ccc(Cc2cccc(C)c2-c2cc3nc(n2)NS(=O)(=O)c2cccc(c2)C(=O)N[C@H](CC(C)C)CO3)cc1 [Compound 394]
- Ent. A Max Activity (Table 9): +++ (+++ is >60%)
- pEC50 (Table 9): > 6.00

SMILES: Cc1cccc(C)c1-c1cc2nc(n1)NS(=O)(=O)c1ccccc1C(=O)NCC(c1ccc(C(C)(C)C)cc1)O2 (stereo not shown) [Compound 222]
- Ent. A Max Activity (Table 9): + (+ is <30%)

SMILES: Cc1cccc(C)c1-c1cc2nc(n1)NS(=O)(=O)c1cccc(c1)C(=O)NCC1(CCN(C(=O)C3(c4ccc5c(c4)CCC5)CC3)CC1)CO2 [Compound 464]
- Ent. A Max Activity (Enteroid Assay A): +++ (+++ is >600%)
- pEC50 (Enteroid Assay A): 5.52 to 6.00

SMILES: Cc1cccc(C)c1-c1cc2nc(n1)NS(=O)(=O)c1cccc(c1)C(=O)NCC1(CCN(CCc3ccccc3)CC1)CO2 [Compound 444]
- Ent. A Max Activity (Enteroid Assay A): ++ (++ is 30-60%)
- pEC50 (Enteroid Assay A): 4.52 to 5.52

SMILES: Cc1cccc(C)c1-c1cc2nc(n1)NS(=O)(=O)c1cccc(c1)C(=O)N[C@H](CC1CCOCC1)CO2 (stereo in doubt) [Compound 191]
- Ent. A Max Activity (Enteroid Assay A): +++ (+++ is >600%)
- pEC50 (Enteroid Assay A): 4.52 to 5.52

SMILES: Cc1cccc(C)c1-c1cc2nc(n1)NS(=O)(=O)c1cccc(c1)C(=O)NC[C@@H](CN1CCCCC1)O2 (stereo in doubt) [Compound 409]
- Ent. A Max Activity (Table 8): + (+ is <30%)

SMILES: CCCC(NC(=O)OC(C)(C)C)C(=O)N1CCC2(CC1)CNC(=O)c1cccc(c1)S(=O)(=O)Nc1nc(cc(-c3c(C)cccc3C)n1)OC2 (stereo not shown) [Compound 449]
- Ent. A Max Activity (Enteroid Assay A): ++ (++ is 30-60%)

SMILES: Cc1cccc(C)c1-c1cc2nc(n1)NS(=O)(=O)c1cccc(c1)C(=O)N[C@@H]1CCN(C(=O)CC(C)(C)C)C[C@@H]1O2 (stereo in doubt) [Compound 380]
- Ent. A Max Activity (Table 9): ++ (++ is 30-60%)
- pEC50 (Table 9): 4.52 to 5.52

SMILES: Cc1cccc(C)c1-c1cc2nc(n1)NS(=O)(=O)c1cccc(c1)C(=O)N[C@H](CC1CCCCC1)[C@@H](C)O2 [Compound 144]
- Ent. A Max Activity (Table 8): +++ (+++ is >60%)
- pEC50 (Table 8): > 6.00

SMILES: Cc1cccc(C)c1-c1cc2nc(n1)NS(=O)(=O)c1cccc(c1)C(=O)NCC(c1ccc(C[Si](C)(C)C)cc1)O2 (stereo not shown) [Compound 128]
- pEC50 (Table 9): > 6.00

SMILES: Cc1cccc(C)c1-c1cc2nc(n1)NS(=O)(=O)c1cccc(c1)C(=O)N[C@H]1CCN(C3CC4(CCCC4)C3)C[C@H]1O2 [Compound 384]
- Ent. A Max Activity (Table 9): +++ (+++ is >60%)
- pEC50 (Table 9): 5.52 to 6.00

SMILES: Cc1cccc(C)c1-c1cc2nc(n1)NS(=O)(=O)c1cccc(c1)C(=O)NCC(c1ccc(C3CCC3)cc1)O2 (single isomer, unassigned) [Compound 14, 10-(4-cyclobutylphenyl)-6-(2,6-dimethylphenyl)-2,2-dioxo-9-oxa-2λ^6-thia-3,5,12,19-tetrazatricyclo[12.3.1.14,8]nonadeca-1(18),4(19),5,7,14,16-hexaen-13-one]
- Ent. A Max Activity (Table 9): +++ (+++ is >60%)
- pEC50 (Table 9): > 6.00

SMILES: Cc1cccc(C)c1-c1cc2nc(n1)NS(=O)(=O)c1cccc(c1)C(=O)NCC(c1ccc(P(C)(C)=O)cc1)O2 (stereo not shown) [Compound 21, 6-(2,6-Dimethylphenyl)-10-(4-dimethylphosphorylphenyl)-2,2-dioxo-9-oxa-2λ^6-thia-3,5,12,19-tetrazatricyclo[12.3.1.14,8]nonadeca-1(18),4(19),5,7,14,16-hexaen-13-one]
- Ent. A Max Activity (Table 8): + (+ is <30%)

SMILES: Cc1cccc(C)c1-c1cc2nc(n1)NS(=O)(=O)c1cccc(c1)C(=O)NCC(C13CC4CC(CC(C4)C1)C3)O2 (stereo not shown) [Compound 244]
- pEC50 (Table 8): > 6.00

SMILES: Cc1cccc(C)c1-c1cc2nc(n1)NS(=O)(=O)c1cccc(c1)C(=O)NCC1(CCN(C(=O)C(CC(C)C)NC(=O)OC(C)(C)C)CC1)CO2 (stereo not shown) [Compound 450]
- Ent. A Max Activity (Enteroid Assay A): ++ (++ is 30-60%)
- pEC50 (Enteroid Assay A): 4.52 to 5.52

SMILES: Cc1cccc(C)c1-c1cc2nc(n1)NS(=O)(=O)c1cccc(c1)C(=O)NCC(c1ccc(C(C)(C)C#N)cc1)O2 (stereo not shown) [Compound 152]
- Ent. A Max Activity (Table 8): + (+ is <30%)

SMILES: CC(C)C[C@@H]1COc2cc(C3C(C)CCCC3C)nc(n2)NS(=O)(=O)c2cccc(c2)C(=O)N1 (stereo partly shown) [Compound 300]
- pEC50 (Table 8): > 6.00

SMILES: Cc1cccc(C)c1-c1cc2nc(n1)NS(=O)(=O)c1cccc(c1)C(=O)N[C@H](CC1CCCCC1)[C@@H](c1ccc(C(C)(C)C)cc1)O2 [Compound 154]
- Ent. A Max Activity (Table 8): +++ (+++ is >60%)
- pEC50 (Table 8): > 6.00

SMILES: Cc1cccc(C)c1-c1cc2nc(n1)NS(=O)(=O)c1cccc(c1)C(=O)NCC1(CCN(CCOCc3ccccc3)CC1)CO2 [Compound 445]
- Ent. A Max Activity (Enteroid Assay A): ++ (++ is 30-60%)
- pEC50 (Enteroid Assay A): 4.52 to 5.52

SMILES: CC(C)C[C@@H]1COc2cc(C3CCCCC3(C)C)nc(n2)NS(=O)(=O)c2cccc(c2)C(=O)N1 (stereo partly drawn) [Compound 68, (11R)-6-(2,2-Dimethylcyclohexyl)-11-isobutyl-2,2-dioxo-9-oxa-2λ^6-thia-3,5,12,19-tetrazatricyclo[12.3.1.14,8]nonadeca-1(18),4,6,8(19),14,16-hexaen-13-one]
- Ent. A Max Activity (Table 9): +++ (+++ is >60%)
- pEC50 (Table 9): 5.52 to 6.00

SMILES: CC(C)COc1cccc(-c2cc3nc(n2)NS(=O)(=O)c2cccc(c2)C(=O)N[C@H](CC(C)C)CO3)c1 [Compound 331]
- pEC50 (Enteroid Assay A): 5.52 to 6.00

— patent US20230382924A1, “MODULATORS OF CYSTIC FIBROSIS TRANSMEMBRANE CONDUCTANCE REGULATOR” (VERTEX PHARMACEUTICALS INCORPORATED, priority 2020, published 2023)
